From ChEMBL document CHEMBL1201862, “PubChem BioAssay data set” (2004)
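48-hour exposure; five concentrations; linearly interpolated endpoints. GI50: concentration for 50% inhibition of growth.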 Calls of active or inactive are those of the source. Cut-off read from the data, not from the text of the source: active = GI50 up to about 1.1 µM and inactive = higher.

Columns and labels:
Assay in all cases: inhibition of tumour cell growth, NCI panel, 48 h
[1] = system: DLD-1
[2] = system: XF498
[3] = system: SNB-78
[4] = system: HOP-18
[5] = system: M19-MEL
[6] = system: DMS-114
[7] = system: Hs-578T
[8] = system: BT-549

COc1ccc(C2N3CCCCC3[C@@H]3c4[nH]c5ccccc5c4CCN23)c(OC)c1 (stereo not given in full)
GI50 [1]: 33.4 µM (inactive)
GI50 [2]: 14.1 µM (inactive)
GI50 [3]: 18.9 µM (inactive)
GI50 [4]: > 100 µM (inactive)
GI50 [5]: 20 µM (inactive)
GI50 [6]: 18.7 µM (inactive)

Cc1ccc(OCC2OC(n3cnc4c(Cl)nc(Nc5cc(Cl)cc(Cl)c5)nc43)CC2Oc2ccc(C)cc2)cc1 (stereo not given)
GI50 [7]: > 100 µM (inactive)
GI50 [8]: > 100 µM (inactive)

CCOC(=O)C1(N)CC1
GI50 [7]: > 100 µM (inactive)

CN(C)CC1CCCCCCCCCCCCC(CN(C)C)C1=O (stereo not given)
GI50 [1]: 15.6 µM (inactive)
GI50 [3]: 13.5 µM (inactive)
GI50 [4]: 16.2 µM (inactive)
GI50 [5]: 12.6 µM (inactive)
GI50 [6]: 16.9 µM (inactive)

CC1=C(C)C(=O)OC(C(C)(O)C2(O)CC3OC34C3CC(O)C56OC5C=CC(=O)C6(C)C3CCC42C)C1 (stereo not given)
GI50 [7]: 1.77 µM (inactive)
GI50 [8]: 0.914 µM (active)

CSc1nnc(SCc2nn3c(=O)cc(C)nc3s2)s1
GI50 [7]: > 100 µM (inactive)
GI50 [8]: > 100 µM (inactive)

COc1ccc(/C=C2/NC(=S)N=C2Cl)cc1
GI50 [7]: > 100 µM (inactive)

COc1ccccc1N1C(=O)/C(=C\c2cccc(Oc3ccccc3)c2)S(=O)(=O)C1c1ccccc1 (stereo not given)
GI50 [8]: 26.6 µM (inactive)

Cc1nn2c(=O)c([N+](=O)[O-])c(/C=C/c3ccco3)nc2s1
GI50 [7]: 27.8 µM (inactive)
GI50 [8]: 28.7 µM (inactive)

N#Cc1ccc(/C=C2\Cc3ccccc3C2=O)cc1
GI50 [7]: 51.2 µM (inactive)
GI50 [8]: > 100 µM (inactive)

CC(C)=CCCC1(Sc2ccccc2)C(=O)OCC1C=C(C)C (stereo not given)
GI50 [8]: 36.3 µM (inactive)

COC1O[C@@H]2CCN3C(=O)[C@@H](OC(=O)c4ccc([N+](=O)[O-])cc4)[C@H]1C23 (stereo not given in full)
GI50 [7]: > 100 µM (inactive)

CN1CNc2nc(N)n(C)c(=O)c2C1
GI50 [8]: > 10 µM (inactive)

COc1ccc(S(=O)(=O)N2C(=O)CCC2C(=O)NC(N)=O)cc1 (stereo not given)
GI50 [7]: > 100 µM (inactive)
GI50 [8]: > 100 µM (inactive)

Cc1ccc(S(=O)(=O)NC(=O)C2(Br)S(=O)(=O)OCCOS2(=O)=O)cc1
GI50 [1]: > 100 µM (inactive)
GI50 [2]: > 100 µM (inactive)
GI50 [3]: > 100 µM (inactive)
GI50 [5]: > 100 µM (inactive)
GI50 [6]: > 100 µM (inactive)

COC(=O)C12CC3CC(C1)CC(C(=O)OC)(C3)C2
GI50 [1]: > 100 µM (inactive)
GI50 [2]: > 100 µM (inactive)
GI50 [3]: > 100 µM (inactive)
GI50 [4]: > 100 µM (inactive)
GI50 [5]: > 100 µM (inactive)
GI50 [6]: > 100 µM (inactive)

O=C(N/N=C(COc1ccc(Cl)cc1)\N=C\c1cccnc1)c1ccncc1
GI50 [7]: 23.7 µM (inactive)
GI50 [8]: > 100 µM (inactive)

COc1cccc(C2c3cc4c(cc3OC(Nc3ccccc3)C2C)OCO4)c1O (stereo not given)
GI50 [7]: 5.81 µM (inactive)
GI50 [8]: 10.6 µM (inactive)

CC(=O)OC1CC2C(C)(C)OC(=O)CC(OC(C)=O)[C@]2(C)C2CCC3(C)C(=CCC3c3ccoc3)[C@]12C (stereo not given in full)
GI50 [1]: 13 µM (inactive)
GI50 [2]: 13.8 µM (inactive)
GI50 [3]: 48.9 µM (inactive)
GI50 [5]: 17.5 µM (inactive)
GI50 [6]: 19.6 µM (inactive)

COC(=O)CCC(=O)CC1CC(=O)C2CCCN12 (stereo not given)
GI50 [1]: > 100 µM (inactive)
GI50 [2]: > 100 µM (inactive)
GI50 [3]: > 100 µM (inactive)
GI50 [4]: > 100 µM (inactive)
GI50 [5]: > 100 µM (inactive)
GI50 [6]: > 100 µM (inactive)

Cc1cn(C2CC(SCCO)C(CO)O2)c(=O)[nH]c1=O (stereo not given)
GI50 [8]: > 100 µM (inactive)

O=C1C(NCCN2CCOCC2)=C(Cl)C(=O)c2ncccc21
GI50 [7]: 1.21 µM (inactive)
GI50 [8]: 1.29 µM (inactive)

Cn1cnc(S[C@H]2[C@H]3C(=O)C=C4S[C@H]5C[C@]42C2=C(N5)C(=O)c4[nH]cc5c4C2=[N+]3CC5)c1C[C@H](N)C(=O)O
GI50 [1]: 17.2 µM (inactive)
GI50 [2]: 15.3 µM (inactive)
GI50 [3]: 20.9 µM (inactive)
GI50 [4]: 52.1 µM (inactive)
GI50 [5]: 8.73 µM (inactive)
GI50 [6]: 2.52 µM (inactive)

COc1ccc2c(c1OC)C(C(Cl)(Cl)Cl)N1CCc3cc4c(cc3C1=C2)OCO4 (stereo not given)
GI50 [7]: 18.4 µM (inactive)
GI50 [8]: 1.03 µM (active)

COc1ccc(-c2cc(=O)c3c(O)c(OC)c(O)c(OC)c3o2)cc1OC
GI50 [1]: 54.8 µM (inactive)
GI50 [2]: 78.3 µM (inactive)
GI50 [3]: 42 µM (inactive)
GI50 [4]: 54.3 µM (inactive)
GI50 [5]: > 100 µM (inactive)
GI50 [6]: > 100 µM (inactive)

CCCN1C(=O)CNC(=O)c2[nH]cnc21
GI50 [1]: > 100 µM (inactive)
GI50 [2]: > 100 µM (inactive)
GI50 [3]: > 100 µM (inactive)
GI50 [4]: > 100 µM (inactive)
GI50 [5]: > 100 µM (inactive)
GI50 [6]: > 100 µM (inactive)

Oc1cc(O)c2c(c1)O[C@H](c1cc(O)c(O)c(O)c1)[C@@H](O)C2 [GALLOCATECHIN]
GI50 [7]: 46.6 µM (inactive)
GI50 [8]: 23.6 µM (inactive)
